Data taken from patent US7186863B2, “Sertraline compositions” (TransForm Pharmaceuticals, Inc., priority 2003, dated 2007).
Where a name gives a salt, the structure may show the parent alone.

Experiment: Solubility of sertraline salt forms
Conditions: medium not given; aqueous solubility

Compound	Solubility [µg/mL]
CN[C@H]1CC[C@@H](c2ccc(Cl)c(Cl)c2)c2ccccc21 [Sertraline lactate Form A, sertraline lactate]	1900
CN[C@H]1CC[C@@H](c2ccc(Cl)c(Cl)c2)c2ccccc21 [sertraline HBr salt, sertraline HBr]	600
sertraline besylate [Sertraline besylate salt]	300
sertraline mesylate [Sertraline mesylate Form C]	4200
